In patent US20140179681A1, “METHODS AND COMPOSITIONS OF TARGETED DRUG DEVELOPMENT” (priority 2010, published 2014):

Experiments:
[1] = molecular target: T1, EGFR (Homo sapiens, UniProt P00533); assay: EGFR in-cell Western (ICW) screening protocol (EGFR inhibition assay); type: cell-based; settings: % Inhibition of EGF dependent EGFR phosphorylation in A431 cells, compound 125 μM in assay
T1 construct: host or cells: A431
Method in brief: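 Serum-starved A431 cells (2 h) were pretreated with compound for 4 h at 37° C, then stimulated with EGF (10 ng/ml final, or 6.6 or 12.5 ng/ml in some runs) for 10 min. After formaldehyde fixation, phospho-EGFR (Tyr1173, or Tyr1045 in some runs) and total EGFR were detected by in-cell Western immunostaining.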

[2] = molecular target: T2, EGF binding site (Rattus norvegicus, UniProt G3V6K6); assay: Inhibition of [125I]EGF binding (EGF inhibitor assay, NovaScreen); settings: determined at 25 μM; rat liver membranes; result in words
T2 construct: Receptor source was rat liver membranes; tissue NovaScreen BioSciences; host or cells: rat liver membranes
Protocol: Identified compounds, representing various pharmacophore models, were tested for ability to inhibit EGFR at 25 μM.
AD4-compounds were identified using pharmacophore models (see Example 3, Example 4) and then were docked with the binding site of EGFR (SEQ ID NO: 1) that is recognized by defined CDRs of cetuximab. The inhibition of epidermal growth factor binding by AD4-compounds was then determined (NovaScreen BioSciences, Hanover, Md.). Inhibition of EGF binding was determined at 25 μM concentration.
Receptor source was rat liver membranes. The radioligand was [^125I]EGF ([…]) at a final ligand concentration of 0.36 nM. A non-specific determinant was used as EGF—[100 nM]. The reference compound and positive control was EGF. Reactions were carried out in 10 mM HEPES (pH 7.4) containing 0.1% BSA at 25° C. for 60 minutes. The reaction was terminated by rapid vacuum filtration onto glass fiber filters. Radioactivity trapped onto the filters was determined and compared to control values to ascertain any interactions of test compounds with the EGF binding site. The EGF inhibitor assays were modified from, for example, Mukku (1984) J. Biol. Chem. 259, 6543-6546; Duh et al. (1990) World J. Surgery 14, 410-418; Lokeshwar et al. (1989) J. Biol. Chem. 264(32), 19318-19326.

T2 sequence (G3V6K6 25-1209): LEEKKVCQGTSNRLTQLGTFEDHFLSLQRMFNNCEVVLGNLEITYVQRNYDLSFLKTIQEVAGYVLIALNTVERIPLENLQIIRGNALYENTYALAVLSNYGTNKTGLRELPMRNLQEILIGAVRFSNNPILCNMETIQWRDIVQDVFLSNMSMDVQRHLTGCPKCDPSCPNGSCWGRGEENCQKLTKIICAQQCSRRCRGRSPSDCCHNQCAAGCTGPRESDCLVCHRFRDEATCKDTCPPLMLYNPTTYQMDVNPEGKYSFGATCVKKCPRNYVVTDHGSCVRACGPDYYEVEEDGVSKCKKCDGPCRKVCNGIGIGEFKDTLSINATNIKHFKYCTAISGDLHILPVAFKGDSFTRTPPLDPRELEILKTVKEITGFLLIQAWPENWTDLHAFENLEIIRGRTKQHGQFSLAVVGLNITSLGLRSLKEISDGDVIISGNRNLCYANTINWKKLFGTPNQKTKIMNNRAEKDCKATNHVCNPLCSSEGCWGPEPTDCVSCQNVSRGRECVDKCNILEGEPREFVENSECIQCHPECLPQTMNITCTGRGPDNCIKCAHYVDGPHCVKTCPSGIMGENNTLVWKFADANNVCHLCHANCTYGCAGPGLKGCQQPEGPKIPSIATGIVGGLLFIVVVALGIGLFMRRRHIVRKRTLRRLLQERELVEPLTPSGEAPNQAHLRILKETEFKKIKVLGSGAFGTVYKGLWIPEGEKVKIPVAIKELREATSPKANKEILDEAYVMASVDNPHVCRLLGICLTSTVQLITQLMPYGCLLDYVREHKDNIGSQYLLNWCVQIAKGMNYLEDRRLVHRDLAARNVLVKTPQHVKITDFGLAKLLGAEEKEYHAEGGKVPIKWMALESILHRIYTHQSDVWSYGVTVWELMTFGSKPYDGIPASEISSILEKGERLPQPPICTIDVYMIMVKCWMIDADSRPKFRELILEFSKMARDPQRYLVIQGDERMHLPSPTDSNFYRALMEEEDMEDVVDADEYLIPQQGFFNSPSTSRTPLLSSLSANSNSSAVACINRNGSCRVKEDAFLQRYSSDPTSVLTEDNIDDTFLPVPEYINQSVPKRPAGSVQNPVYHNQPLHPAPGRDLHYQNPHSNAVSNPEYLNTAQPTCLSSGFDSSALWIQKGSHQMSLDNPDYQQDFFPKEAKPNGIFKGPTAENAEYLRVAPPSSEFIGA
T1 sequence (P00533 25-1210): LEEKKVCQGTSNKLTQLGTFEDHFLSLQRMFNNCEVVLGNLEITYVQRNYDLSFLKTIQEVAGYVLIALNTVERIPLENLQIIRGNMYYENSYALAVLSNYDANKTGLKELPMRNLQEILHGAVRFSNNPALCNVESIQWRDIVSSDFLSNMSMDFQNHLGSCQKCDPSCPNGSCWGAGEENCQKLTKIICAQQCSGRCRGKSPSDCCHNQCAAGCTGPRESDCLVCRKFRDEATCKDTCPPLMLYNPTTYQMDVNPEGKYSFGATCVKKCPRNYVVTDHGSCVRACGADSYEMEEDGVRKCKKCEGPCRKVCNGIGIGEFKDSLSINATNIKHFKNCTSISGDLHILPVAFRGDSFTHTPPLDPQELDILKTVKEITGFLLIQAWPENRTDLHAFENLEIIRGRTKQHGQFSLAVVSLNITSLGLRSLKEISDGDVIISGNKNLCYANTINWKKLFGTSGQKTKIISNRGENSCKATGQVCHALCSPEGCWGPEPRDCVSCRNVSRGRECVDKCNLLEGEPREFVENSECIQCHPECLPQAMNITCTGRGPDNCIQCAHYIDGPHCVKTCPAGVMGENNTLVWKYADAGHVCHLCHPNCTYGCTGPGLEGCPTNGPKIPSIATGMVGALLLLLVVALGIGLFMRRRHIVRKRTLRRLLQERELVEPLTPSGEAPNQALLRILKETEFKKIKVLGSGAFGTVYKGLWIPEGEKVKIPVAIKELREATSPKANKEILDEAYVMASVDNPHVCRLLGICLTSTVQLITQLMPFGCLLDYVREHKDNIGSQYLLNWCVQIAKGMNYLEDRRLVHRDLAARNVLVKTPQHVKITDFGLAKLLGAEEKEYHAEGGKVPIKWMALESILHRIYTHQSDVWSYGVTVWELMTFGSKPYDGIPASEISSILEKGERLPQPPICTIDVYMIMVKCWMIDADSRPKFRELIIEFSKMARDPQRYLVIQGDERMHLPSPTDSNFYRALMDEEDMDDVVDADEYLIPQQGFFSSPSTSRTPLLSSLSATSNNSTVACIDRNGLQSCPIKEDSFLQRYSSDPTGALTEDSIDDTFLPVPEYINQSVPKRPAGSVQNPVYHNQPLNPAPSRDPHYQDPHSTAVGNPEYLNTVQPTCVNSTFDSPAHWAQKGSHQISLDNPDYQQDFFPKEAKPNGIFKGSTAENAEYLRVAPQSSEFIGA

Structure (SMILES) | ICW Screen ([1]; Table 11) | inhibition of epidermal growth factor binding to its receptor [2] | ICW assay ([1]; Table 10)
CCc1cc2c(CN3CCN(Cc4ccc5c(c4)OCO5)CC3)cc(=O)oc2cc1O [AD4-1734] | 65.9 | inhibitor of epidermal growth factor binding to its receptor | 
Cc1cc(C)cc(NS(=O)(=O)c2ccc(NC(=S)Nc3ccccc3)cc2)c1 [AD4-11091] |  | inhibitor of epidermal growth factor binding to its receptor | 112.858
